# From US7329761B2, “Substituted imides” (Celgene Corporation, priority 1994, dated 2008)
row,melting point,Structure (SMILES)
1,85 to 86 °C,"CCC(c1ccc(OC)cc1)N1C(=O)c2ccccc2C1=O (stereo not shown) [Example 3, 1-Phthalimido-1-(4-methoxyphenyl)propane]"
2,100 to 101 °C,"CCCC(CCC)C(c1ccc(OC)c(OC)c1)N1C(=O)c2ccccc2C1=O (stereo not shown) [Example 7, 1-Phthalimido-1 (3′,4′-dimethoxyphenyl)-2-propylpentane]"
3,124 to 125 °C,"COc1ccc(C(C)N2C(=O)c3ccccc3C2=O)cc1OC (stereo not shown) [Example 2, 1-Phthalimido-1-(3′,4′-dimethoxyphenyl) Ethane]"
4,160 to 161 °C,"COc1ccc(CN2C(=O)c3ccccc3C2=O)cc1OC [Example 4, 1-Phthalimido-1-(3′,4′-dimethoxyphenyl)methane]"
